Source: PMC9949698, “Visible-Light-Controlled Histone Deacetylase Inhibitors for Targeted Cancer Therapy” (Journal of Medicinal Chemistry, 2023)
Read-outs that look alike come from different tables or passages of the source.

Tests used:
HT29 cells = assay: HT29 cell viability, MTS assay, 50 μM; type: cell-based; settings: 48 h; for effect on viability when preilluminated: preilluminated (380 or 550 nm)
Protocol: (§1) HDACis have been proposed as a potential therapeutic strategy against cancer stem cells (CSCs).[39],[40] We selected three cell lines that have a strong CSC phenotype (HT29,[41],[42] MCF7[43]−[45] and KG1[46]) and tested the best compounds at 50 μM under dark and illumination conditions.
(§2) HeLa, MCF7, and HT29 cells were maintained in adherent cultures in DMEM supplemented with 10% FBS. KG1 cells were maintained in a suspension culture in IMDM supplemented with 20% FBS.
(§3) Stock solutions of the compounds were heated to 60 or 80 °C to obtain solutions with the maximum amount of the trans isomer (dark). For the “light” solutions, the stock solutions were illuminated with 96-well LED array plates for 3 min at the maximum potency. The solutions were then serially diluted with DMEM to give 20 times the desired final concentration, maintaining DMSO at 10%.
(§4) Cells were seeded in 96-well black flat bottom plates with a clear bottom at a density of 5 × 10^3 cells/well (HeLa) or 1 × 10^4 cells/well (MCF7, HT29, and KG1), in a volume of 95 μL. After 24 h, 5 μL of compound solutions (20×) were added. Cells were incubated for 48 h.
(§5) Viability of HeLa, MCF7, and […] cells was determined with a CellTiter 96 assay (Promega), according to the manufacturer’s instructions. Briefly, 20 μL of CellTiter 96 reagent was added to each well, the plates were incubated at 37 °C for 2 h, and the absorbance at 490 nm was recorded. Viability is expressed as a percentage with respect to the nontreated cells.

HeLa cells = assay: HeLa cell viability, MTS assay, dark or preillumination; type: cell-based; settings: for IC50: Homo sapiens, HeLa; for IC50(dark)/IC50(light): Table 5; for viability decreasing to: under illumination
Protocol: We then proceeded to evaluate the effect of the compounds in a viability assay against HeLa cells.
as §2
Stock solutions of the compounds were heated to 60 or 80 °C to obtain solutions with the maximum amount of the trans isomer (dark). […] The solutions were then serially diluted with DMEM to give 20 times the desired final concentration, maintaining DMSO at 10%.
Cells were seeded in 96-well black flat bottom plates with a clear bottom at a density of 5 × 10^3 cells/well (HeLa) or 1 × 10^4 cells/well (MCF7, HT29, and KG1), in a volume of 95 μL.
as §5

[1] = UV–vis spectra and optimal isomerization wavelengths; type: physicochemical; settings: for λcis (optimal wavelength trans to cis) / λtrans (optimal wavelength cis to trans): UV–vis at 25–50 μM in DMSO, Teleopto plates (Table 1)
Protocol: Ultraviolet–visible (UV–vis) spectra were recorded using a Tecan Spark 20M Multimode Microplate reader. Samples (200 μL of compound solution/well) were prepared at […] in DMSO. Samples were measured between 300 and 800 nm with 2 nm fixed intervals in 96-well transparent plates. Illumination at different wavelengths was performed for 2 min using 96-well LED array plates (LEDA Teleopto) placed below the samples. […] Potencies were measured using a Thorlabs PM100D power energy meter connected with a standard photodiode power sensor (S120VC).

KG1 cells = assay: KG1 cell viability, CellTiterGlo assay, 50 μM; type: cell-based; settings: 48 h; for effect on viability when preilluminated: preilluminated (380 or 550 nm)
Protocol: as §1, §2, §3, §4
Viability of KG1 cells was determined with a CellTiter-Glo (Promega) assay, according to the manufacturer’s instructions. Briefly, 100 μL of CellTiter-Glo reagent was added to each well, the plates were kept at room temperature for 10 min, and the luminescence was recorded. Viability is expressed as a percentage with respect to the nontreated cells.

[2] = E/Z composition under light or temperature conditions by HPLC; type: physicochemical
human recombinant HDAC1 = molecular target: T1, human recombinant HDAC1 (Homo sapiens, UniProt Q13547); assay: Fluorogenic assay with human recombinant HDAC1, dark or illumination; type: biochemical; settings: for activity at the highest tested concentration in the dark: 10 μM; for IC50 under illumination, in words: continuous illumination
T1 construct: purchased BPS Bioscience
Protocol: To study the inhibition of HDAC enzymes by the compounds, we used a fluorogenic assay with human recombinant HDAC1.[32] The enzyme was incubated with an acetylated substrate and each inhibitor for 1 h at room temperature, under either dark or light conditions. We opted for illumination throughout the incubation period to maintain the maximum proportion of cis under light conditions. […] Then, the deacetylated substrate generated a fluorescent coumarin after incubation of the mixture with trypsin at 37 °C for 20 min.
Stock solutions of the compounds were diluted to 1 mM in DMSO and then heated to 60 or 80 °C to obtain solutions with the maximum amount of the trans isomer (dark). […] The 1 mM solutions were then serially diluted with HDAC buffer to 10 times the desired concentration, maintaining DMSO at 10%.
In control wells without the compound, inhibitor, or enzyme, HDAC buffer was added instead. […] Then, 50 μL of the stop solution was added and the plates were incubated at 37 °C for 20 min in the dark. Fluorescence was measured at a λem of 460 nm and a λex of 380 nm. Enzyme activity is expressed as a percentage with respect to the nontreated cells, after subtracting the blank (well with no enzyme and no compound).

MCF7 cells = assay: MCF7 cell viability, MTS assay, 50 μM; type: cell-based; settings: 48 h; for effect on viability when preilluminated: preilluminated (380 or 550 nm)
Protocol: as §1, §2, §3, §4, §5

[3] = UV–vis spectra and optimal isomerization wavelengths; type: physicochemical; settings: 25–50 μM in DMSO, using CoolLed at 217 mW/cm^2 instead of Teleopto plates
[4] = cited from earlier work
[5] = preillumination 550 nm, 48 h, read-out: IC50 light (concentration that reduces cell viability by half)
[6] = UV–vis spectra at 25–100 μM in DMSO (Table 3)
[7] = HPLC at isosbestic point (290–336 nm), 100 μM in DMSO after illumination with λcis (Table 3)
[8] = HPLC at isosbestic point (290–336 nm), 100 μM in DMSO after illumination with λtrans (Table 3)
[9] = continuous illumination 550 nm (Table 4), read-out: IC50 light
[10] = dark (Table 4), read-out: IC50 dark
[11] = preillumination 380 nm, 48 h, read-out: IC50 light (concentration that reduces cell viability by half)
[12] = UV–vis spectra at 25–50 μM in DMSO (Table 1)
[13] = HPLC at isosbestic point (310–338 nm), 100 μM in DMSO after illumination with λcis (Table 1)
[14] = HPLC at isosbestic point (310–338 nm), 100 μM in DMSO after illumination with λtrans (Table 1)
[15] = dark vs 365 or 380 nm (Table 2), fold
[16] = dark, 1 h at room temperature (Table 2), read-out: IC50 dark
[17] = illumination 365 or 380 nm, 1 h at room temperature (Table 2), read-out: IC50 light

T1 sequence (Q13547 whole entry): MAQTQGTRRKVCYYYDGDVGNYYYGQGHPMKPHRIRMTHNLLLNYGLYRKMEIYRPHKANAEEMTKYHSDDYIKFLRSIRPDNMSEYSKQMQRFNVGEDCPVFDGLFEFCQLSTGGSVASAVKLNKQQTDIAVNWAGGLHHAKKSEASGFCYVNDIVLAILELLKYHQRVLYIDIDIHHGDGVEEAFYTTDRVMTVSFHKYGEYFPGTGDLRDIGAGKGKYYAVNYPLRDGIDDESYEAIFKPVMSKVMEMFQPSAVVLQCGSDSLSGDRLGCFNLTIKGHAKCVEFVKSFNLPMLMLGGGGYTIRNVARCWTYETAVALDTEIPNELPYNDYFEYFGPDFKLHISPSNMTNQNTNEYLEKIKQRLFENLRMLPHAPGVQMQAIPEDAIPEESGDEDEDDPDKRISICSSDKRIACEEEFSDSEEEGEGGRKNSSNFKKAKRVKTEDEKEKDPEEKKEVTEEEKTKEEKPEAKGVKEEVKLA

IC50 (HeLa cells; [5]) [µM] | IC50(dark)/IC50(light) (HeLa cells) | λcis [1, 6] [nm] | λmax cis [1, 6] [nm] | λmax trans [1, 6] [nm] | λtrans [1, 6] [nm] | % cis at λcis [2, 7] [%] | % trans at λtrans [2, 8] [%] | IC50(dark)/IC50(light) (human recombinant HDAC1; Table 4) | IC50 (human recombinant HDAC1; [9]) [µM] | IC50 (human recombinant HDAC1; [10]) [µM] | activity at the highest tested concentration in the dark (human recombinant HDAC1; dark) | λmax trans [1, 12] [nm] | SMILES | effect on viability in the dark (HT29 cells) | effect on viability when preilluminated (HT29 cells) | cell death under dark vs light conditions (HeLa cells; in words) | effect on viability in the dark (KG1 cells) | effect on viability when preilluminated (KG1 cells) | effect on viability in the dark (MCF7 cells) | effect on viability when preilluminated (MCF7 cells) | further results
29 | >3.4 | 550 | 428 | 348 | 455 | 84 | 67 | ≈5.9 | 1.7 | ~10 |  |  | COc1cc(F)c(/N=N/c2c(F)cc(C(=O)Nc3ccccc3N)cc2F)c(F)c1 [Compound 38a, (E)-N-(2-Aminophenyl)-4-((2,6-difluoro-4-methoxyphenyl)diazenyl)-3,5-difluorobenzamide] | little or no effect | significantly reduced the viability | inducing cell death only under light conditions | little or no effect | significantly reduced the viability | little or no effect | significantly reduced the viability | IC50 (HeLa cells; dark, 48 h, read-out: IC50 dark (concentration that reduces cell viability by half)): > 100 µM; IC50 (human recombinant HDAC1; supplementary CSV, read-out: HDAC1 IC50 dark): 10 µM
37 | >2.7 | 550 | 442 | 358 | 455 | 68 | 85 | >2.6 | 3.9 | > 10 | no or little activity |  | COc1cc(F)c(/N=N/c2c(F)cc(/C=C/C(=O)Nc3ccccc3N)cc2Cl)c(Cl)c1 [Compound 32c, (E)-N-(2-Aminophenyl)-3-(3-chloro-4-((E)-(2-chloro-6-fluoro-4-methoxyphenyl)diazenyl)-5-fluorophenyl)acrylamide] | little or no effect | significantly reduced the viability | inducing cell death only under light conditions | little or no effect | significantly reduced the viability | little or no effect | significantly reduced the viability | IC50 under illumination, in words (human recombinant HDAC1): low micromolar range
37 | >2.7 | 550 | 434 | 358 | 455 | 77 | 74 | >5.0 | 2 | > 10 | no or little activity |  | COc1cc(F)c(/N=N/c2c(F)cc(/C=C/C(=O)Nc3ccccc3N)cc2F)c(F)c1 [Compound 32a, (E)-N-(2-Aminophenyl)-3-(4-((E)-(2,6-difluoro-4-methoxyphenyl)diazenyl)-3,5-difluorophenyl)acrylamide] | little or no effect | significantly reduced the viability | inducing cell death only under light conditions | little or no effect | significantly reduced the viability | little or no effect | significantly reduced the viability | IC50 under illumination, in words (human recombinant HDAC1): low micromolar range
 | >14 |  |  |  |  |  |  |  |  |  |  | 378 | COc1ccc(/N=N/c2ccc(/C=C/C(=O)Nc3cc(-c4cccs4)ccc3N)cc2)cc1 [Compound 20, (E)-N-(2-Amino-5-(thiophen-2-yl)phenyl)-3-(4-((E)-(4-methoxyphenyl)diazenyl)phenyl)acrylamide] | little or no effect | significantly reduced the viability |  | little or no effect | significantly reduced the viability | little or no effect | significantly reduced the viability | IC50 (HeLa cells; [11]): 7.4 µM; IC50 (HeLa cells; preillumination, 24 h, read-out: IC50 (365 nm, 24 h)): 13 µM; IC50 dark (concentration that reduces cell viability by half) (HeLa cells; dark, 48 h): no activity; viability decreasing to (HeLa cells; 48 h): 30%; λcis (optimal wavelength trans to cis) [1]: 380 nm; λtrans (optimal wavelength cis to trans) [1]: 550 nm; % cis at λcis [2, 13]: 63%; % trans at λtrans [2, 14]: 82%; IC50(dark)/IC50(light) (human recombinant HDAC1; [15]): >29; IC50 (human recombinant HDAC1; [16]): > 10 µM; IC50 (human recombinant HDAC1; [17]): 0.35 µM
 | >8.3 |  |  |  |  |  |  |  |  |  |  | 378 | COc1ccc(/N=N/c2ccc(/C=C/C(=O)Nc3ccccc3N)cc2)cc1 [Compound 11, (E)-N-(2-Aminophenyl)-3-(4-((E)-(4-methoxyphenyl)diazenyl)phenyl)acrylamide] | little or no effect | significantly reduced the viability |  | little or no effect | significantly reduced the viability | little or no effect | significantly reduced the viability | IC50 (HeLa cells; [11]): 12 µM; IC50 dark (concentration that reduces cell viability by half) (HeLa cells; dark, 48 h): no activity; viability decreasing to (HeLa cells; 48 h): 30%; stability after multiple cis/trans isomerization cycles ([1]; 25 μM in DMSO, 380–550 nm cycles, 2 min each): stable; λcis (optimal wavelength trans to cis) [1]: 380 nm; λtrans (optimal wavelength cis to trans) [1]: 550 nm; % cis at λcis [2, 13]: 80%; % trans at λtrans [2, 14]: 67%; IC50(dark)/IC50(light) (human recombinant HDAC1; [15]): >50; IC50 (human recombinant HDAC1; [16]): > 10 µM; IC50 (human recombinant HDAC1; [17]): 0.2 µM
 |  |  |  |  |  |  |  |  |  |  |  | 450 | CN(C)c1ccc(/N=N/c2ccc(C(=O)Nc3ccccc3N)cc2)cc1 [Compound 2] |  |  |  |  |  |  |  | activity under dark and illumination conditions (HeLa cells; in words): inactive; λcis [3]: 460^5 nm; λtrans [3]: 580^5 nm; activation wavelength [4]: 470 nm; half-life ([4]; room temperature in PBS): 60 μs
